Assay results as given in ChEMBL document CHEMBL4828742, “Discovery of novel thiophene derivatives as potent neuraminidase inhibitors” (Eur J Med Chem, 2021).
Active and inactive are the calls of the source. The rule behind the calls is not given here.

Key:
[1] = Inhibition of Influenza A virus H5N1 neuraminidase; design: species or system H5N1 subtype
[2] = Selectivity index, ratio of CC50 for cytotoxicity against dog MDCK cells to EC50 for antiviral activity against Influenza A virus (A/chicken/Hubei/327/2004(H5N1)) infected in dog MDCK cells; format: toxicity, cell-based; settings: read-out: Ratio CC50/EC50
H5N1 subtype [3] = assay: Antiviral activity against Influenza A virus H5N1 (A/chicken/Hubei/327/2004(H5N1)) infected in dog MDCK cells assessed as inhibition of virus replication by plaque reduction assay; format: functional, organism-based
[4] = Cytotoxicity against dog MDCK cells assessed as decrease in cell viability by CCK8 assay; format: cell-based, Canis lupus familiaris
A549 = assay: Antiviral activity against Influenza A virus H5N1 infected in human A549 cells assessed as inhibition of viral replication by TCID50 assay; format: functional, cell-based; settings: H5N1 subtype
H5N1 subtype [5] = assay: Potency index, ratio of oseltamivir carboxylate IC50 to test compound IC50 for inhibition of Influenza A virus H5N1 neuraminidase

**Q.** Which IC50 [1] does the source give for `CCOC(=O)c1c(NC(=O)COc2ccc(C=O)cc2)sc(C(=O)OC)c1C` here?
**A.** The IC50 was 8860 nM.

**Q.** For `CCOC(=O)c1c(NC(=O)COc2cccc3ncccc23)sc(C(=O)OC)c1C`, which IC50 [1] is on record?
**A.** Its IC50 is 40 nM.

**Q.** Which IC50 [1] does the source give for `CCOC(=O)c1c(NC(=O)COc2ccccn2)sc(C(=O)OC)c1C` here?
**A.** Its IC50 is 960 nM.

**Q.** With `CCOC(=O)c1c(NC(=O)COc2ccc(C=O)cc2OC)sc(C(=O)OC)c1C` as the molecule, how does the IC50 [1] read?
**A.** The IC50 was 4390 nM.

**Q.** Which IC50 [1] does the source give for `CCOC(=O)c1c(NC(=O)COc2cc(Br)ccc2OC)sc(C(=O)OC)c1C` here?
**A.** The IC50 was 240 nM.

**Q.** With `CCOC(=O)c1c(NC(=O)COc2ccc(C=O)cc2OCC)sc(C(=O)OC)c1C` as the molecule, how does the IC50 [1] read?
**A.** Its IC50 is 70 nM.

**Q.** Which results are given for `CCOC(=O)c1c(NC(=O)COc2ccc3ncccc3c2)sc(C(=O)OC)c1C`?
**A.** selectivity ratio [2]: > 500; EC50 (H5N1 subtype [3]): 1590 nM; IC50 [1]: 30 nM; CC50 [4]: > 800000 nM; Activity (A549): Active; Ratio IC50 (H5N1 subtype [5]): 2

**Q.** Which IC50 [1] does the source give for `CCOC(=O)c1c(NC(=O)COc2cccc(C=O)c2)sc(C(=O)OC)c1C` here?
**A.** Its IC50 is 5650 nM.

**Q.** For `CCOC(=O)c1c(NC(=O)COc2ccc(NC(C)=O)cc2)sc(C(=O)OC)c1C`, which IC50 [1] is on record?
**A.** Its IC50 is 50 nM.

**Q.** For `CCOC(=O)c1c(NC(=O)COc2cccc(C(C)=O)c2)sc(C(=O)OC)c1C`, which IC50 [1] is on record?
**A.** The IC50 was 4770 nM.
